Measurements as given in a melting point compilation (Tetko et al.; mined from patent text by program, amines drawn as free bases though some values may be those of a salt).

| melting point [°C] | Structure (SMILES) |
| --- | --- |
| 89 | Cc1c(O)cccc1Br |
| 83.5 to 84 | O=C(c1ccc(Cl)cc1)c1cccc(Br)n1 |
| 233 to 237 | CNc1nc(N)ncc1-c1cccc(Cl)c1Cl |
| 274 to 278 | O=c1[nH]c(=S)c2[nH]cnc2n1Cc1ccc(Cl)cc1 |
| 196 to 197 | O=C(O)c1ccc(C=Cc2csc3ccccc23)s1 |
| 144 to 148 | CC(C=CCOC(=O)c1ccc(C(N)=O)cc1)Oc1ccc(Oc2cnc3cc(Cl)ccc3n2)cc1 (configuration not stated) |
| 144 | Oc1ccc(Cl)cc1C(c1cc(Cl)ccc1O)C(F)(F)F |
| 48.1 to 49.8 | O=C1CCCCCCC1F (configuration not stated) |
| 148 to 153 | CN(C)C(=O)c1cc(C#N)cnc1Cl |
| 195 to 196 | CC(C)Cn1c(CNC(=O)OC(C)(C)C)c(-c2ccccc2)c2cc(-c3nc(N)cs3)ccc2c1=O |
| 159 to 162 | CCCCC(CC)C(=O)Nc1ccc2ccn(Cc3ccc(C(=O)OC(=O)N(c4ccccc4)c4ccccc4)cc3OC)c2c1 (configuration not stated) |
| 221 to 223 | Cc1csc2c(Sc3nnc(N)s3)ncnc12 |
| 141 to 142 | O=C(O)C(Oc1ccc(Cl)cc1)c1ccc(Oc2ccc(Cl)cc2)cc1 (configuration not stated) |
| 101 to 102 | CNC(=O)c1cccc(C=O)c1 |
| 41 to 43 | COC(=O)CCCCC(=O)c1ccc(F)cc1 |
| 87 to 88 | CC(C)(C)OC(=O)C(C)(C)Oc1ccc(N)cc1 |
| 183 to 185 | Cc1ncn(-c2ccc(CNC(=O)c3nc4n(c(=O)c3OCc3ccccc3)CCOC4(C)C)c(F)c2)n1 |
| 198 | O=c1c2ccccc2[nH]c(=S)n1CCN1CCC(Nc2nc3ccccc3n2Cc2ccc(F)cc2)CC1 |
| 89 to 91 | CCOC1CC2(C)C(CCC3C4CC=C(C(C)=O)C4(C)CC(=O)C32)CC1O (configuration not stated) |
| 90 to 91 | Cc1cc(C)cc(C(=O)Cc2ccncc2)c1 |
| 220 to 222 | CC(=O)N1CCN(CC(=O)Nc2nc(-c3ccccc3)c(-c3ccc(=O)n(C(C)C)n3)s2)CC1 |
| 300 | CCOc1cc(-c2cc(C(F)(F)F)n3ncc(C(=O)Nc4nc(C)c(S(N)(=O)=O)s4)c3n2)ccc1C(F)(F)F |
| 180 to 182 | COc1ccccc1C(=O)ON1C(=O)CCC1=O |
| 146 to 148 | CC(=O)NC[C@H]1CN(c2ccc(N3CCC(n4nnnc4CC(=O)N4CCOCC4)CC3)c(F)c2)C(=O)O1 |

| melting point [°C] | Structure (SMILES) |
| --- | --- |
| > 260 | Cc1ccc(C)n1-c1ccc2ccc3[nH]c(=O)c(=O)n(CC(=O)Nc4ccccc4)c3c2c1 |
| 165 to 167 | C#CC[C@H](c1nc2cc(Cl)ccc2c(=O)n1Nc1ccccc1)N(CCCN)C(=O)c1cc(F)cc(F)c1 |
| 77 to 80 | CC(N)(C(N)=O)C(F)F (configuration not stated) |
| 152 to 154 | COc1ccc(C2=NN(C3CCN(C(=O)c4ccccc4)CC3)C(=O)CC2)cc1OC |
| 229 | CN1CCOc2cc(S(=O)(=O)n3c(COC(C)(C)C(=O)O)cc4nc(Cl)ccc43)ccc21 |
| 156 to 158 | CC(C)(C)NC(=O)N1CCn2cc(-c3ccccc3)c(C(N)=O)c2C1 |
| 81 | CCCc1c(OCCCOc2cc(N)c(Cl)cc2C)ccc(C(C)=O)c1O |
| 87 to 88 | CCC(O)CN1CCC(c2noc3cc(F)ccc23)CC1 (configuration not stated) |
| 180 to 182 | CS(=O)(=O)c1ccc(-c2ccc(Cl)n2-c2ccc(F)cc2)cc1 |
| 145 to 147 | CC(C)(OCc1nn(Cc2ccccc2)c2ccc(Cl)cc12)C(=O)O |
| 145 to 146 | Oc1c2c(nn1-c1ccccn1)CCc1ccccc1-2 |
| 71 to 73 | Cc1cc(CCCCCCCOc2ccc(C3=NCC(CO)O3)cc2)on1 (configuration not stated) |
| 132 to 135 | CS(=O)(=O)c1ccc(Cl)c(C(=O)Nc2ccc(-n3nc(C(F)(F)F)cc3C3CC3)cc2)c1 |
| 182 | COc1ccc2c(c1)c(O)c(C#N)n2-c1ccccc1 |
| 153 to 156 | Cn1ncnc1COc1nc2c(cc1-c1ccccc1)nnn2-c1ccccc1 |
| 302 to 305 | O=C(O)c1cn([C@@H]2C[C@@H]2F)c2cc(F)ccc2c1=O |
| 145 to 146 | Cn1cc(C(O)c2ccncc2)cc1C(=O)c1ccc(Cl)cc1 (configuration not stated) |
| 126 to 128 | O=C(Nc1ccc(-n2nc(C(F)(F)F)cc2C(F)(F)F)cc1)c1ccc(F)cc1F |
| 112 to 113 | CCCOc1ccccc1-c1nccc(=O)[nH]1 |
| 94 to 96 | CNC(=S)NN=C(CCCCl)c1ccccc1 |
| 70 to 72 | CN(C)c1cccc(C(=O)COc2cccc(Cl)c2)c1 |
| 124 to 125 | O=C(O)CCCCC=Cc1cn(-c2cccnc2)c2ccccc12 |
| 228 to 229 | O=C(O)C1=Cc2cc(Cl)cc(Br)c2OC1C(F)(F)F (configuration not stated) |
| 228 to 230 | CCCc1nc2c(N)nc3cc(OCc4cccc(N)c4)ccc3c2n1CC(C)C |

| melting point [°C] | Structure (SMILES) |
| --- | --- |
| 294 to 297 | O=C1NCc2c1cc1ccc3c(c1c2-c1ccc(F)cc1)OCO3 |
| 138 to 139 | CSc1nnc(-c2ccc3occ(-c4ccc(OC(F)(F)F)cc4)c3c2)o1 |
| 252 to 253 | CC(=O)Nc1ccc(Nc2c([N+](=O)[O-])cc(C(=O)O)cc2S(=O)(=O)Nc2ccccc2NC(C)=O)cc1 |
| 227 to 228 | O=C1CNc2ncc(I)cc2N1Cc1cc(F)c(F)cc1F |
| 189 | Cc1c(C#N)c(-c2ccc(C#N)cc2)c(C)n1Cc1ccc(Cl)c(CO)c1 |
| 270 to 271 | O=C(c1cc2cc3[nH]c(=O)oc3cc2[nH]1)N1CCC(Cc2ccccc2)CC1 |
| 258 to 260 | CCCONNc1nc(C(=O)c2ccccc2O)nc(C(=O)c2ccccc2O)n1 |
| 87 to 89 | O=P(O)(O)CCCCCCCCC(F)(F)C(F)(F)C(F)(F)C(F)(F)F |
| 206 to 207 | CC(=O)NN(C(C)=O)[C@@H]1c2cc(C#N)ccc2OC(C)(C)[C@H]1O (relative stereo) |
| > 240 | O=C1C(=Cc2ccc([N+](=O)[O-])s2)CCc2cc(OCCn3ccnc3)ccc21 |
| 124 to 126 | CCC(=O)OCOC(=O)C1=C(C)NC(C)=C(C(=O)OC)C1c1cccc(Cl)c1Cl (configuration not stated) |
| 201 to 203 | Cc1cc(Oc2[nH]c(=O)[nH]c(=O)c2C(C)C)cc(C2OCCO2)c1 |
| 80 to 84 | c1ccc(C(c2ccccc2)N2CCN(CCCCn3cccc3)CC2)cc1 |
| 154 to 167 | CC(=O)NCC1(c2ccccc2)CCN(CCC(c2ccccc2)(c2ccccc2)c2ccccc2)CC1 |
| 108 to 111 | O=C(O)c1c(Cl)ccc2cc(C(F)(F)F)c(C(F)(F)F)nc12 |
| 250 | O=CN1[C@@H](c2cccnc2)SC[C@H]1C(=O)O |
| 179 to 181 | COC(=O)c1ccc(Cn2c(=O)c3cc(C(=O)NCc4ccc(OC)cc4)sc3n(C)c2=O)cc1C |
| 101 to 103 | CC(C)(C=NO)C(O)(CCc1ccc(F)cc1)Cn1cncn1 (configuration not stated) |
| 174 to 175 | CCCCCS(=O)(=O)NC(=O)/C=C/c1ccc(OCCOC)cc1Nc1ccc(C(F)(F)F)cc1Cl |
| 207 to 208 | C[Si](C)(C)C#Cc1ccc(C=Cc2ccc(C#C[Si](C)(C)C)cc2)cc1 |
| 196 to 197 | Cc1nn(-c2cc(Nc3ccc(N)cc3)c(Cl)cc2Cl)c(=O)n1C(F)F |
| 175 to 177 | Cc1cc(C)cc(NC(=O)Cc2ccc(OC3(C(=O)O)CCCC(C)C3)cc2)c1 (configuration not stated) |
| 162 to 163 | CC(C)Oc1ccn2nc(-c3ccccc3)c(-c3ccc(=O)n(C(C)C)n3)c2c1 |
| 164 to 166 | CCOCc1nc2c(N)nc3cc(OCCCc4cccc(N)c4)ccc3c2n1CC(C)(C)O |

| melting point [°C] | Structure (SMILES) |
| --- | --- |
| 148 | CCN1c2ccccc2C=C(Br)c2ccccc21 |
| 148 to 149 | CCOC(=O)c1cnn2c(-c3ccccc3C(F)(F)F)ccnc12 |
| 135 to 138 | CCCCCCCNC(=O)Nc1ccccc1CNCc1cc(C(C)(C)C)c(O)c(C(C)(C)C)c1 |
| 61 to 62 | C[C@@H]([C@@H]1CCC(=O)O1)N(Cc1ccccc1)Cc1ccccc1 |
| 172 to 174 | Nc1cc(C(=O)O)ccc1OCCCCCCc1cccc(O)c1O |
| 69 to 71 | CCOC(=O)C=C(Nc1cn[nH]c1)C(=O)OCC |
| 60 to 62 | CCOC(=O)CC1(c2ccc(OC)c(OC)c2)CNC(=O)C1 (configuration not stated) |
| 85 to 87 | COc1cc(CC(=O)NCCOc2scc(C)c2C)ccc1OCCN |
| 179 to 180 | Cc1c(Cc2ccc(C(C)C)cc2)c2c(c(C)c1NC(=O)CC(C)(C)C)C(N1CCCC1)C(C)(C)O2 (configuration not stated) |
| 253 to 254 | O=C1CCCC2=C1C(c1ccc(Cl)cc1)C1=C(CCCC1)N2 (configuration not stated) |
| 67 to 68 | O=C(N1CC2CC(C1)c1ccccc12)C(F)(F)F |
| 160 | C=COC(=O)N1C[C@@H]2SCCC(c3ccccc3)(c3ccccc3)[C@@H]2C1 (racemic) |
| 218 to 220 | Cn1cc(-c2ccccc2)c(=O)c(S(=O)(=O)c2ccccc2)c1 |
| 110 to 111 | CCOC(=O)c1cnn2c(C=O)c(Cc3cccc(F)c3C)c(-c3ccccc3)c2c1Cl |
| 46 to 49 | Cc1nc(-c2cc(C)c(OCCCc3cccnc3)c(C)c2)no1 |
| 93 to 94 | CN(C)C1CCN(c2nccc(Oc3ccc(NC(=O)c4cc(F)cc(N5CCCCC5)c4)c4ccccc34)n2)C1 (configuration not stated) |
| 163 | CN(C)C1CCN(c2nc(N3CCOCC3)c3ncnc(N(Cc4ccccc4)Cc4ccccc4)c3n2)CC1 |
| 140 to 141 | CCOc1cc(OCC)c(C=NNC(=N)NCc2ccccc2)c(OCC)c1 |
| 159 to 162 | CC(C)(C)CC(C)(C)Nc1nc(Cl)nc(N2CC3CCC(CC3)C2)n1 |
| 154 to 155 | O=C(O)CCCc1cc2nc(Cl)ccc2n1S(=O)(=O)c1ccc(Cl)cc1Cl |
| 158 to 160 | CC(C)(C)OC(=O)NC1CCCCCC=CC2CC2(C(=O)NS(=O)(=O)C2CC2)NC(=O)C2CC(OC(=O)c3ccc4nccnc4c3)CN2C1=O (configuration not stated) |
| 245 to 246 | Cc1nn2c(-c3cccnc3)ccnc2c1C#N |
| 108 to 110 | C=CCN(c1ncnc2c1ncn2CC(C)O)C1CCCCC1 (configuration not stated) |

| Structure (SMILES) | melting point [°C] |
| --- | --- |
| CCCNCC(O)c1ccc(F)cc1 (configuration not stated) | 58.6 to 78.8 |
| CCNC(=O)c1c(NC(=O)c2cc(C(F)(F)F)nn2-c2ncccc2Cl)c(C)cc2nc(C)ccc12 | > 230 |
